Measurements taken from patent US20230393140A1, “BINDING ASSAYS INVOLVING A PLURALITY OF SYNTHETIC COMPOUNDS, TARGETS, AND COUNTER TARGETS” (SRI International, priority 2020, published 2023).
Numbered stars: 1 amine (or outer) side, 2 acyl side, 3 side chain; on linkers, the order of the positions; unused ones are H or OH. Square brackets hold non-standard residues; d marks the D form. Peptide text beside a SMILES is read from it. * marks the point of attachment. 5FAM = O=C1OC2(c3ccc(O)cc3Oc3cc(O)ccc32)c2ccc(C(=O)*)cc21; NHCH2C6H4(4-CH2CONH2) = NC(=O)Cc1ccc(CN*)cc1; X1 = O=C(Cc1ccc(CN[*:1])cc1)[*:2]

target: TNFα (Homo sapiens, UniProt P01375); assay: MST binding affinity of resynthesized NNP hits to TNFα; set-up: purchased R&D Systems, Inc. 210-TA/CF; details: read-out: KD (nM) [95% conf. int], NNP2 library hit, target TNFα, one-site binding model
Sequence (P01375 77-233 limits assumed): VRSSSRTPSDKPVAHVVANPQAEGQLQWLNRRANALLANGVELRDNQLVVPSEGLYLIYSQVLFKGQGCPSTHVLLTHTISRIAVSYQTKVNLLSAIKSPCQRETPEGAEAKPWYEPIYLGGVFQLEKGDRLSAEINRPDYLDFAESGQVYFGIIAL
Procedure: Hit binding affinity to various targets were determined using Microscale Thermophoresis (MST). MST experiments were performed on a Monolith NT.115pico (NanoTemper Technologies GmbH, Munich, Germany). Measurements were performed at room temperature, in triplicate with incubation periods of 15, 30 and 45 minutes. […] Targets were labeled using Nanotemper Monolith 2nd Generation Protein Labeling Kits. RED-MALEIMIDE (Maleimide-647-dye) labeling kit was used for K-Ras and RED-NHS (NHS-647-dye) labeling kit was used for IL-6, IL-6R, TNFα and ASGPR. The buffer for the ASGPR contained 20 mM HEPES pH 7.4, 150 mM NaCl, 10 mM MgCl2, 2 mM CaCl2, 0.05% Pluronic F-127, and 1 mM DTT; for IL-6 contained 20 mM HEPES pH 7.4, 150 mM KCl, 10 mM MgCl2, and 0.1% Pluronic F-127; for the soluble IL-6 receptor 20 mM HEPES pH 7.4, 150 mM NaCl, 10 mM MgCl2, and 0.05% Tween-20; for K-Ras 20 mM HEPES pH 7.4, 150 mM NaCl, 10 mM MgCl2, 0.05% Tween-20 and 1 mM DTT; for TNFα 10 mM HEPES pH 7.4, 150 mM NaCl, 10 mM MgCl2, 0.05% Polysorbate-20. Triplicate data was analyzed using MO.AffinityAnalysis software (NanoTemper Technologies GmbH).

Q: CC(C)C[C@H](NC(=O)[C@@H](CCC(=O)O)NC(=O)[C@H]1CCCN1C(=O)Cc1ccc(CNC(=O)[C@H](CC(C)C)NC(=O)[C@@H](CCCCN)NC(=O)[C@@H](Cc2ccccc2)NC(=O)Cc2ccc(CNC(=O)[C@@H](NC(=O)[C@@H](CCC(=O)O)NC(=O)[C@@H](Cc3ccccc3)NC(=O)Cc3ccc(CNC(=O)[C@H](CC(C)C)NC(=O)[C@@H](CCCNC(=N)N)NC(=O)[C@@H](CC(C)C)NC(=O)Cc4ccc(CNC(=O)[C@H](Cc5ccccc5)NC(=O)[C@@H](CC(C)C)NC(=O)[C@H](NC(=O)c5ccc6c(c5)C(=O)OC65c6ccc(O)cc6Oc6cc(O)ccc65)[C@H](C)O)cc4)cc3)C(C)C)cc2)cc1)C(=O)NCc1ccc(CC(=O)N2CCC[C@@H]2C(=O)N[C@H](CCC(=O)O)C(=O)N[C@@H](Cc2ccccc2)C(=O)NCc2ccc(CC(=O)N[C@H](Cc3c[nH]cn3)C(=O)N[C@H](CCC(=O)O)C(=O)N[C@@H](CC(C)C)C(=O)NCc3ccc(CC(=O)N4CCC[C@@H]4C(=O)N[C@H](CCCNC(=N)N)C(=O)N[C@@H](C)C(=O)NCc4ccc(CC(=O)N[C@H](Cc5c[nH]cn5)C(=O)N[C@H](Cc5ccc(O)cc5)C(=O)N[C@H](C(=O)NCc5ccc(CC(N)=O)cc5)C(C)C)cc4)cc3)cc2)cc1 [TNF-39-4] (5FAM-[dT][dL]F[X1][dL][dR]L[X1][dF][dE]V[X1][dF][dK]L[X1][dP][dE]L[X1][dP][dE]F[X1][dH][dE]L[X1][dP][dR]A[X1][dH][dY]V-{NHCH2C6H4(4-CH2CONH2)}) was tested. Which Kd did it give?
A: 28 nM

Q: CC(C)C[C@H](NC(=O)[C@@H](CCCNC(=N)N)NC(=O)[C@@H](CC(C)C)NC(=O)Cc1ccc(CNC(=O)[C@H](CC(C)C)NC(=O)[C@H](NC(=O)[C@@H](CCCCN)NC(=O)c2ccc3c(c2)C(=O)OC32c3ccc(O)cc3Oc3cc(O)ccc32)C(C)C)cc1)C(=O)NCc1ccc(CC(=O)N[C@H](Cc2ccccc2)C(=O)N[C@H](CCC(=O)O)C(=O)N[C@H](C(=O)NCc2ccc(CC(=O)N[C@H](Cc3ccccc3)C(=O)N[C@H](CCCNC(=N)N)C(=O)N[C@@H](C)C(=O)NCc3ccc(CC(=O)N[C@H](Cc4ccc(O)cc4)C(=O)N[C@H](CCCCN)C(=O)N[C@@H](C)C(=O)NCc4ccc(CC(=O)N[C@H](CCC(=O)O)C(=O)N[C@H](CO)C(=O)N[C@H](C(=O)NCc5ccc(CC(=O)N6CCC[C@@H]6C(=O)N[C@@H](C(=O)NCC(=O)NCc6ccc(CC(=O)N7CCC[C@@H]7C(=O)N[C@H](CCCNC(=N)N)C(=O)N[C@@H](C)C(=O)NCc7ccc(CC(=O)N[C@H](Cc8ccccc8)C(=O)N[C@H](CCCCN)C(=O)NCC(=O)NCc8ccc(CC(N)=O)cc8)cc7)cc6)C(C)C)cc5)C(C)C)cc4)cc3)cc2)C(C)C)cc1 [TNF-39-5] (5FAM-[dK][dV]L[X1][dL][dR]L[X1][dF][dE]V[X1][dF][dR]A[X1][dY][dK]A[X1][dE][dS]V[X1][dP][dV]G[X1][dP][dR]A[X1][dF][dK]G-{NHCH2C6H4(4-CH2CONH2)}) was tested. Which Kd did it give?
A: 23 nM

Q: With CC(C)C[C@H](NC(=O)[C@@H](CCCNC(=N)N)NC(=O)[C@@H](CC(C)C)NC(=O)Cc1ccc(CNC(=O)[C@H](CC(C)C)NC(=O)[C@@H](CC(C)C)NC(=O)[C@@H](Cc2ccc(O)cc2)NC(=O)c2ccc3c(c2)C(=O)OC32c3ccc(O)cc3Oc3cc(O)ccc32)cc1)C(=O)NCc1ccc(CC(=O)N[C@H](Cc2ccccc2)C(=O)N[C@H](CCC(=O)O)C(=O)N[C@H](C(=O)NCc2ccc(CC(=O)N3CCC[C@@H]3C(=O)N[C@H](CCCNC(=N)N)C(=O)N[C@H](C(=O)NCc3ccc(CC(=O)N[C@H](Cc4c[nH]c5ccccc45)C(=O)N[C@H](CCCNC(=N)N)C(=O)N[C@H](C(=O)NCc4ccc(CC(=O)N[C@H](CCCNC(=N)N)C(=O)N[C@H](Cc5ccc(O)cc5)C(=O)N[C@@H](CC(C)C)C(=O)NCc5ccc(CC(=O)N[C@H](CCC(=O)O)C(=O)N[C@@H](C(=O)N[C@H](C(=O)NCc6ccc(CC(=O)N[C@@H](C(=O)N[C@H](Cc7c[nH]cn7)C(=O)N[C@@H](CC(C)C)C(=O)NCc7ccc(CC(=O)N[C@H](Cc8ccc(O)cc8)C(=O)N[C@H](CCCNC(=N)N)C(=O)N[C@@H](Cc8ccccc8)C(=O)NCc8ccc(CC(N)=O)cc8)cc7)[C@H](C)O)cc6)C(C)C)C(C)C)cc5)cc4)C(C)C)cc3)C(C)C)cc2)C(C)C)cc1 [TNF-39-6] (5FAM-[dY][dL]L[X1][dL][dR]L[X1][dF][dE]V[X1][dP][dR]V[X1][dW][dR]V[X1][dR][dY]L[X1][dE][dV]V[X1][dT][dH]L[X1][dY][dR]F-{NHCH2C6H4(4-CH2CONH2)}) as the compound, how does the Kd read?
A: 93 nM

Q: Which Kd does the source give for CC(C)C[C@H](NC(=O)[C@@H](CCCCN)NC(=O)[C@@H](Cc1ccccc1)NC(=O)Cc1ccc(CNC(=O)[C@H](CC(C)C)NC(=O)[C@H](NC(=O)[C@@H](CCCNC(=N)N)NC(=O)Cc2ccc(CNC(=O)[C@H](CC(C)C)NC(=O)[C@@H](CCCNC(=N)N)NC(=O)[C@@H](CC(C)C)NC(=O)Cc3ccc(CNC(=O)[C@H](CC(C)C)NC(=O)[C@H](NC(=O)[C@@H](CCCCN)NC(=O)c4ccc5c(c4)C(=O)OC54c5ccc(O)cc5Oc5cc(O)ccc54)C(C)C)cc3)cc2)C(C)C)cc1)C(=O)NCc1ccc(CC(=O)N[C@H](C)C(=O)N[C@H](CCCCN)C(=O)N[C@@H](Cc2ccccc2)C(=O)NCc2ccc(CC(=O)N[C@H](Cc3ccccc3)C(=O)N[C@@H](C(=O)N[C@@H](C)C(=O)NCc3ccc(CC(=O)N4CCC[C@@H]4C(=O)NCC(=O)N[C@H](C(=O)NCc4ccc(CC(=O)N[C@H](CCCCN)C(=O)N[C@H](Cc5ccccc5)C(=O)N[C@@H](Cc5ccccc5)C(=O)NCc5ccc(CC(=O)N[C@H](C)C(=O)N[C@@H](C(=O)N[C@@H](CC(C)C)C(=O)NCc6ccc(CC(N)=O)cc6)C(C)C)cc5)cc4)C(C)C)cc3)[C@H](C)O)cc2)cc1 [TNF-39-7] (5FAM-[dK][dV]L[X1][dL][dR]L[X1][dR][dV]L[X1][dF][dK]L[X1][dA][dK]F[X1][dF][dT]A[X1][dP]GV[X1][dK][dF]F[X1][dA][dV]L-{NHCH2C6H4(4-CH2CONH2)}) here?
A: 53 nM

Q: CC(C)C[C@H](NC(=O)[C@@H](CCCNC(=N)N)NC(=O)[C@@H](Cc1c[nH]c2ccccc12)NC(=O)Cc1ccc(CNC(=O)[C@@H](NC(=O)[C@@H](CCC(=O)O)NC(=O)[C@@H](Cc2ccccc2)NC(=O)Cc2ccc(CNC(=O)[C@H](C)NC(=O)[C@@H](Cc3c[nH]cn3)NC(=O)[C@@H](Cc3c[nH]c4ccccc34)NC(=O)Cc3ccc(CNC(=O)[C@H](CC(C)C)NC(=O)[C@H](NC(=O)[C@@H](CCCCN)NC(=O)c4ccc5c(c4)C(=O)OC54c5ccc(O)cc5Oc5cc(O)ccc54)C(C)C)cc3)cc2)C(C)C)cc1)C(=O)NCc1ccc(CC(=O)N[C@H](Cc2ccc(O)cc2)C(=O)N[C@H](CCCCN)C(=O)N[C@@H](C)C(=O)NCc2ccc(CC(=O)N[C@H](CC(N)=O)C(=O)N[C@H](CCCNC(=N)N)C(=O)N[C@@H](Cc3ccccc3)C(=O)NCc3ccc(CC(=O)N4CCC[C@@H]4C(=O)N[C@@H](C(=O)NCC(=O)NCc4ccc(CC(=O)N5CCC[C@@H]5C(=O)N[C@H](CCCNC(=N)N)C(=O)N[C@@H](C)C(=O)NCc5ccc(CC(=O)N[C@H](C)C(=O)N[C@H](CCCCN)C(=O)NCC(=O)NCc6ccc(CC(N)=O)cc6)cc5)cc4)C(C)C)cc3)cc2)cc1 [TNF-39-8] (5FAM-[dK][dV]L[X1][dW][dH]A[X1][dF][dE]V[X1][dW][dR]L[X1][dY][dK]A[X1][dN][dR]F[X1][dP][dV]G[X1][dP][dR]A[X1][dA][dK]G-{NHCH2C6H4(4-CH2CONH2)}) was tested. Which Kd did it give?
A: 270 nM

Q: CC(C)C[C@H](NC(=O)[C@@H](CCCNC(=N)N)NC(=O)CNC(=O)Cc1ccc(CNC(=O)[C@H](CC(C)C)NC(=O)[C@H](NC(=O)[C@@H](CCCCN)NC(=O)c2ccc3c(c2)C(=O)OC32c3ccc(O)cc3Oc3cc(O)ccc32)C(C)C)cc1)C(=O)NCc1ccc(CC(=O)N[C@H](CCCNC(=N)N)C(=O)N[C@@H](C(=O)N[C@@H](CC(C)C)C(=O)NCc2ccc(CC(=O)N[C@H](Cc3c[nH]c4ccccc34)C(=O)N[C@H](CCCNC(=N)N)C(=O)N[C@@H](CC(C)C)C(=O)NCc3ccc(CC(=O)N[C@H](Cc4c[nH]c5ccccc45)C(=O)N[C@H](CCCNC(=N)N)C(=O)N[C@H](C(=O)NCc4ccc(CC(=O)N[C@H](CO)C(=O)N[C@H](CO)C(=O)N[C@@H](Cc5ccccc5)C(=O)NCc5ccc(CC(=O)N[C@H](C)C(=O)N[C@H](CO)C(=O)N[C@@H](Cc6ccccc6)C(=O)NCc6ccc(CC(=O)N[C@H](Cc7c[nH]c8ccccc78)C(=O)N[C@H](CCCCN)C(=O)N[C@@H](CC(C)C)C(=O)NCc7ccc(CC(=O)N[C@H](Cc8ccc(O)cc8)C(=O)N[C@H](CCCNC(=N)N)C(=O)N[C@@H](Cc8ccccc8)C(=O)NCc8ccc(CC(N)=O)cc8)cc7)cc6)cc5)cc4)C(C)C)cc3)cc2)C(C)C)cc1 [TNF-39-9] (5FAM-[dK][dV]L[X1]G[dR]L[X1][dR][dV]L[X1][dW][dR]L[X1][dW][dR]V[X1][dS][dS]F[X1][dA][dS]F[X1][dW][dK]L[X1][dY][dR]F-{NHCH2C6H4(4-CH2CONH2)}) was tested. Which Kd did it give?
A: 150 nM
